Results taken from patent US6355799B1, “Substituted benzene compounds, process for their preparation, and herbicidal and defoliant compositions containing them” (ISK Americas Incorporated, priority 1997, dated 2002).

How the values were obtained:
Format in all cases: in vivo
[1] = test system: redroot pigweed (Amaranthus retroflexus, AMARE); test: Pre-emerge test, greenhouse herbicide activity screening; details: phytotoxicity rating 0-100, 14 days after application
Summary of the method: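 Rating: 0–100 visual injury, 14 DAA. Application: acetone, 187 l/ha, 15–1000 g ai/ha, flat-fan track sprayer with nozzle 40–45 cm above soil or canopy. Post-emerge runs used 0.25% v/v surfactant on 2–3 leaf plants.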

[2] = test system: barnyardgrass (Echinochloa crus-galli, ECHCG); test: as above; details: phytotoxicity rating 0-100, 14 days after application
Excerpt: (§1) A standard greenhouse herbicide activity screening system was used to evaluate the herbicidal efficacy and crop safety of these test compounds. Seven broadleaf weed species including redroot pigweed (Amaranthus retroflexus, AMARE, velvetleaf (Abutilon theophrasti, ABUTH), sicklepod (Cassia obtusifolia, CASOB), ivyleaf morningglory (Ipomoea hederacea, IPOHE), lambsquarters (Chenopodium album, CHEAL), common ragweed (Ambrosia artemisizfolia L., AMBEL), and cocklebur (Xanthium strumarium, XANST) were used as test species. Four grass weed species including green foxtail (Setaria viridis, SETVI), barnyardgrass (Echinochloa crus-galli, ECHCG), johnsongrass (Sorghum halepense, SORHA), and large crabgrass (Digitaria sanguinalis, DIGSA) were also used. In addition, three crop species, field corn (Zea mays L., var. Dekalb 535, CORN), soybean (Glycine max L., var. Pella 86, SOY), and is upland rice (Oryza sp., var. Tebonnet, RICE) were included.
(§2) All plants were grown in 10 cm square plastic pots which were filled with a sandy loam soil mix. For pre-emerge tests, seeds were planted one day prior to application of the test compounds. For post-emerge tests, seeds were planted 8-21 days prior to the test to allow emergence and good foliage development prior to application of the test substances. At the time of the post-emerge application, plants of all species were usually at the 2-3 leaf stage of development.
(§3) All test compounds Were dissolved in acetone and applied to the test units in a volume of 187 l /ha. Test materials were applied at rates ranging from 15 g ai/ha to 1000 g ai/ha using a track sprayer equipped with a TJ8001E even flow flat fan spray nozzle. Plants were arranged on a shelf so that the top of the canopy (post-emerge) or top of the soil surface (pre-emerge) was 40-45 cm below the nozzle. Pressurized air was used to force the test solution through the nozzle as it was mechanically advanced (via electrically driven chain drive) over the top of all test plants/pots. This application simulates a typical commercial field herbicide application.
(§4) In the post-emerge test, a commercial non-ionic surfactant was also included (0.25% v/v) to enhance wetting of the leaf surfaces of target plants. Immediately after application, test units of the pre-emerge applications were watered at the soil surface to incorporate the test materials. Subsequently, these test units were bottom-watered. Post-emerge test units were always bottom-watered.
(§5) At 14 days after application of the test materials, phytotoxicity ratings were recorded. A rating scale of 0-100 was used as previously described in Research Methods in Weed Science, 2nd edition, B. Truelove, Ed., Southern Weed Science Society, Auburn University, Auburn, Ala. 1977. Briefly, “0” corresponds to no damage and “100” corresponds to complete death of all plants in the test unit. This scale was used both to determine efficacy against weed species and damage to crop species. Herbicide activity data for various compounds of this invention, which are shown by compound No. in Tables 1-8, are shown in Tables 11 and 12.

[3] = test system: green foxtail (Setaria viridis, SETVI); test: as above; details: phytotoxicity rating 0-100, 14 days after application
Excerpt: as §1, §2, §3, §4, §5

[4] = test system: ivyleaf morningglory (Ipomoea hederacea, IPOHE); test: as above; details: phytotoxicity rating 0-100, 14 days after application
Excerpt: as §1, §2, §3, §4, §5

[5] = test system: lambsquarters (Chenopodium album, CHEAL); test: as above; details: phytotoxicity rating 0-100, 14 days after application
Excerpt: as §1, §2, §3, §4, §5

[6] = test system: large crabgrass (Digitaria sanguinalis, DIGSA); test: as above; details: phytotoxicity rating 0-100, 14 days after application
Excerpt: as §1, §2, §3, §4, §5

[7] = test system: sicklepod (Cassia obtusifolia, CASOB); test: as above; details: phytotoxicity rating 0-100, 14 days after application
Excerpt: as §1, §2, §3, §4, §5

[8] = test system: velvetleaf (Abutilon theophrasti, ABUTH); test: as above; details: phytotoxicity rating 0-100, 14 days after application
Excerpt: as §1, §2, §3, §4, §5

[9] = test system: field corn (Zea mays L., var. Dekalb 535, CORN); test: Pre-emerge test, crop safety; details: crop damage rating 0-100, 14 days after application
Summary of the method: (§6)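 Applied at 15–1000 g ai/ha from acetone in 187 l/ha spray volume. Post-emergence applications included 0.25% v/v non-ionic surfactant and reached plants sown 8–21 days before. Pre-emergence applications were incorporated by surface watering. Efficacy or crop damage was rated on a 0–100 scale after 14 days.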

[10] = test system: upland rice (Oryza sp., var. Tebonnet, RICE); test: Pre-emerge test, crop safety; details: crop damage rating 0-100, 14 days after application
Summary of the method: as §6

[11] = test system: barnyardgrass (Echinochloa crus-galli, ECHCG); test: Post-emerge test, greenhouse herbicide activity screening; details: post-emerge, 14 days after application, rating scale 0-100
Excerpt: as §1, §2, §3, §4, §5

[12] = test system: green foxtail (Setaria viridis, SETVI); test: as above; details: post-emerge, 14 days after application, rating scale 0-100
Excerpt: as §1, §2, §3, §4, §5

[13] = test system: ivyleaf morningglory (Ipomoea hederacea, IPOHE); test: as above; details: post-emerge, 14 days after application, rating scale 0-100
Excerpt: as §1, §2, §3, §4, §5

[14] = test system: lambsquarters (Chenopodium album, CHEAL); test: as above; details: post-emerge, 14 days after application, rating scale 0-100
Excerpt: as §1, §2, §3, §4, §5

[15] = test system: large crabgrass (Digitaria sanguinalis, DIGSA); test: as above; details: post-emerge, 14 days after application, rating scale 0-100
Excerpt: as §1, §2, §3, §4, §5

[16] = test system: redroot pigweed (Amaranthus retroflexus, AMARE); test: as above; details: post-emerge, 14 days after application
Excerpt: as §1, §2, §3, §4, §5

[17] = test system: sicklepod (Cassia obtusifolia, CASOB); test: as above; details: post-emerge, 14 days after application, rating scale 0-100
Excerpt: as §1, §2, §3, §4, §5

[18] = test system: velvetleaf (Abutilon theophrasti, ABUTH); test: as above; details: post-emerge, 14 days after application, rating scale 0-100
Excerpt: as §1, §2, §3, §4, §5

[19] = test system: field corn (Zea mays L., var. Dekalb 535, CORN); test: Post-emerge test, crop safety; details: post-emerge, 14 days after application, rating scale 0-100
Summary of the method: (§7)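 Compounds in acetone were track-sprayed at 15-1000 g ai/ha (187 l/ha) on sandy loam pots: pre-emerge one day after seeding, post-emerge at 2-3 leaf stage with 0.25% v/v non-ionic surfactant. Phytotoxicity was rated 14 days later on a 0 (no damage) to 100 (complete death) scale.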

[20] = test system: upland rice (Oryza sp., var. Tebonnet, RICE); test: Post-emerge test, crop safety; details: post-emerge, 14 days after application, rating scale 0-100
Summary of the method: as §7

COc1c(Cl)cc(F)c(-n2c(=O)cc(C(F)(F)F)n(C)c2=O)c1NC(=O)OCc1ccc(OC(F)(F)F)cc1 [4-45]
Pre-emerge Herbicidal Activity AMARE ([1]; 63 g ai/ha): 30
Pre-emerge Herbicidal Activity AMARE ([1]; 250 g ai/ha): 100
Pre-emerge Herbicidal Activity ECHCG ([2]; 63 g ai/ha): 0
Pre-emerge Herbicidal Activity ECHCG ([2]; 250 g ai/ha): 40
Pre-emerge Herbicidal Activity SETVI ([3]; 63 g ai/ha): 0
Pre-emerge Herbicidal Activity SETVI ([3]; 250 g ai/ha): 50
Pre-emerge Herbicidal Activity IPOHE ([4]; 63 g ai/ha): 10
Pre-emerge Herbicidal Activity IPOHE ([4]; 250 g ai/ha): 40
Pre-emerge Herbicidal Activity CHEAL ([5]; 63 g ai/ha): 50
Pre-emerge Herbicidal Activity CHEAL ([5]; 250 g ai/ha): 95
Pre-emerge Herbicidal Activity DIGSA ([6]; 63 g ai/ha): 0
Pre-emerge Herbicidal Activity DIGSA ([6]; 250 g ai/ha): 70
Pre-emerge Herbicidal Activity CASOB ([7]; 63 g ai/ha): 0
Pre-emerge Herbicidal Activity CASOB ([7]; 250 g ai/ha): 40
Pre-emerge Herbicidal Activity ABUTH ([8]; 63 g ai/ha): 50
Pre-emerge Herbicidal Activity ABUTH ([8]; 250 g ai/ha): 90
Pre-emerge Herbicidal Activity CORN ([9]; 63 g ai/ha): 0
Pre-emerge Herbicidal Activity CORN ([9]; 250 g ai/ha): 20
Pre-emerge Herbicidal Activity RICE ([10]; 63 g ai/ha): 0
Pre-emerge Herbicidal Activity RICE ([10]; 250 g ai/ha): 10
phytotoxicity rating ECHCG ([11]; 63 g ai/ha): 20
phytotoxicity rating ECHCG ([11]; 250 g ai/ha): 20
phytotoxicity rating SETVI ([12]; 63 g ai/ha): 30
phytotoxicity rating SETVI ([12]; 250 g ai/ha): 60
phytotoxicity rating IPOHE ([13]; 63 g ai/ha): 95
phytotoxicity rating IPOHE ([13]; 250 g ai/ha): 100
phytotoxicity rating CHEAL ([14]; 63 g ai/ha): 100
phytotoxicity rating CHEAL ([14]; 250 g ai/ha): 100
phytotoxicity rating DIGSA ([15]; 63 g ai/ha): 10
phytotoxicity rating DIGSA ([15]; 250 g ai/ha): 20
phytotoxicity rating AMARE ([16]; 63 g ai/ha, rating scale 0-100 (0 no damage, 100 complete death)): 90
phytotoxicity rating AMARE ([16]; 250 g ai/ha, rating scale 0-100): 95
phytotoxicity rating CASOB ([17]; 63 g ai/ha): 80
phytotoxicity rating CASOB ([17]; 250 g ai/ha): 80
phytotoxicity rating ABUTH ([18]; 63 g ai/ha): 100
phytotoxicity rating ABUTH ([18]; 250 g ai/ha): 100
phytotoxicity rating CORN (crop damage) ([19]; 63 g ai/ha): 10
phytotoxicity rating CORN (crop damage) ([19]; 250 g ai/ha): 20
phytotoxicity rating RICE (crop damage) ([20]; 63 g ai/ha): 10
phytotoxicity rating RICE (crop damage) ([20]; 250 g ai/ha): 20
